Assay results as given in US20240343699A1, “DERIVATIVES OF SUBSTITUTED MORPHOLINES AND USES THEREOF” (Supernus Pharmaceuticals, Inc., priority 2023, published 2024).
Where two headings read alike, the source gives them in different places.

Experiments:
[1] = Stability in human plasma with protease inhibitor cocktail and individual amidase/esterase inhibitors; assay type: in vitro ADME
Description: Plasma Preparation. Whole blood was centrifuged at 1174×g for 30 min. Aliquots of the supernatant were then transferred to 5 mL centrifuge tubes.
Stability of COMPOUND A in Human and Rat Plasma (circulating enzymes) in the Presence of Protease Inhibitor Cocktail. COMPOUND A was added to plasma with and without protease inhibitor cocktail and incubated to study inhibition of test article (COMPOUND A) degradation. […] Plasma with and without inhibitor cocktail was aliquoted into 1.5 mL tubes to a volume of 950 μL, then preincubated for 15 min. An aliquot (50 μL) of test article stock solution was added to plasma with and without inhibitor and tubes were vortexed then incubated at 37° C. Degradation began with the addition of test article. Aliquots (50 μL) were taken at 0, 15, 30, 60, and 120 min after being vortexed and were quenched in 150 μL acetonitrile/0.1% formic acid solution and briefly vortexed then immediately frozen at −80° C. Stability was determined by measuring loss of parent compound using LC/MS/MS methods. Each exposure condition and time point were done in triplicate.
Stability of COMPOUND A in Human and Rat Plasma (circulating enzymes) in the Presence of Individual Protease Inhibitors. In addition to using a cocktail of protease inhibitors, individual inhibitors were used in plasma. […] Stability was determined by measuring loss of parent compound using LC/MS/MS methods. […]

[2] = system: sleep/wake and cataplexy; assay type: in vivo, male DTA mice
[3] = Stability in rat whole blood, red blood cells and plasma; assay type: in vitro ADME; conditions: 0.5 mM, 0-120 min
Description: Stability of Test Articles at Different pH Values. 10 mM stock solutions of COMPOUND A were prepared in DMSO. From this stock solution, a single concentration in a 10 μL aliquot was added to three fluid matrices: SGF at pH 2.0 (gastric), SIF at pH 6.0 (upper intestine), and PBS at 7.4 (systemic). The final volume was 1 mL (0.1 mM). The preparations were then incubated at 37° C. and samples were collected at 0, 15, 30, 60, and 120 min for analysis of parent material by LC/MS/MS. The collected sample was quenched in acetonitrile/0.1% formic acid mixture. Red Blood Cell (RBC): Human and rat blood were centrifuged to separate out red blood cells at […] for 15 min. The upper plasma level was aspirated with a micropipette and placed in a bleach solution for disposal. The RBC pellet was resuspended in sterile isotonic saline. The pellet was gently resuspended by rocking the tube. […]
Stability in Human and Rat Red Blood cells and Hemolysis. […] After centrifugation, 70 μL of supernatant (without disturbing the pellet) was transferred to a clean and clear polystyrene flat bottomed 96-well plate and the absorbance of the sample at a single wavelength was measured using a Bio Tech Synergy Hl Plate Reader at a wavelength of 410 nm. […] Stability was measured by measuring loss of parent compound using LC/MS/MS.

[4] = COMPOUND A 30, 90 and 120 mg/kg, first 6 h
[5] = COMPOUND A 90 and 120 mg/kg, ZT19-ZT24
[6] = COMPOUND A 90 and 120 mg/kg, first 6 h
[7] = all concentrations of COMPOUND A, first 6 h

## CCOc1ccccc1OC[C@@H]1CN(C(=O)OC(C)OC(=O)[C@@H](N)C(C)C)CCO1 (stereo partly shown) [COMPOUND A]
[1]; fresh human and rat plasma with amidase and esterase inhibitors
  degradation accounted for by esterase and amidase enzymes: ~100%
[1]; plasma, 60 min incubation
  Human proteolytic activity relative to rat proteolytic activity: about 3 fold
[2]; COMPOUND A 30 mg/kg, ZT19-ZT24
  W and NREM (hourly, cumulative and total time): W increased overall (treatment effect) and NREM decreased overall
[2]; COMPOUND A 120 mg/kg
  C levels during ZT24: approximately half of vehicle levels
[2]; COMPOUND A 120 mg/kg, ZT19-ZT24
  NREM (hourly, cumulative and total time): NREM increased overall
[2]; COMPOUND A 10, 30, 90, 120 mg/kg p.o., first 6 h of dark period
  latency to REM: increased the latency to REM
[2]; [4]
  number of C bouts: the number of C bouts decreased overall
  total NREM time: total NREM time increased
  total time in C (cataplexy): total time in C decreased
[2]; COMPOUND A 90 and 120 mg/kg
  REM and C during the 6-h recording: practically eliminated
[2]; [5]
  REM:NR ratios: REM:NR ratios decreased
  latency to REM: The latency to REM increased
[2]; [6]
  LMA: LMA decreased overall
  Total W time: Total W time decreased
[2]; COMPOUND A two highest concentrations, ZT19-ZT24
  C (cataplexy): significantly decreased
[2]; [7]
  NREM alpha, beta and high gamma EEG power: decreased overall
  total time in REM: decreased total time in REM
[2]; all test conditions, first 6 h
  REM:NR ratios: REM:NR ratios decreased
[3]
  stability in rat red blood cells, plasma and whole blood: time-dependent decrease in the amount of parent compound present
